For eleven molecules, AC50, IC50 and EC50 results are on record in ChEMBL document CHEMBL1201862, “PubChem BioAssay data set” (2004).

Activity calls are given as the source filed them.

The target in test [1] is T1, DNA repair protein RAD52 homolog (Homo sapiens, UniProt P43351).
T1 sequence (P43351 whole entry): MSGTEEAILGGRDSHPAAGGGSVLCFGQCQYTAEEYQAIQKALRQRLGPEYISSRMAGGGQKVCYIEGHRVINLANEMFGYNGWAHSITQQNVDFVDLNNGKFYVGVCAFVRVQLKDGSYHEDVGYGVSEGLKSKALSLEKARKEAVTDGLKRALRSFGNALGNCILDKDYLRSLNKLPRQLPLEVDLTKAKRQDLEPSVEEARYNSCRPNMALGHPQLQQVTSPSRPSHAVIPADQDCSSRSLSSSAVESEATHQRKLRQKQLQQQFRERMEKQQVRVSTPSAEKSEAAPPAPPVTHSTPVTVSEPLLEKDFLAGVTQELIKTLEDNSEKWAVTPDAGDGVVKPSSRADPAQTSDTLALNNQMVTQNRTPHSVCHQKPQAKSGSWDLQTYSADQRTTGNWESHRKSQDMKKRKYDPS
The test is classed as functional, biochemical.

The nature of test [2]: cells. It counts as functional, cell-based.
For test [3], the target named is T2, Trace amine-associated receptor 1 (Homo sapiens, UniProt Q96RJ0).
T2 sequence (Q96RJ0 whole entry): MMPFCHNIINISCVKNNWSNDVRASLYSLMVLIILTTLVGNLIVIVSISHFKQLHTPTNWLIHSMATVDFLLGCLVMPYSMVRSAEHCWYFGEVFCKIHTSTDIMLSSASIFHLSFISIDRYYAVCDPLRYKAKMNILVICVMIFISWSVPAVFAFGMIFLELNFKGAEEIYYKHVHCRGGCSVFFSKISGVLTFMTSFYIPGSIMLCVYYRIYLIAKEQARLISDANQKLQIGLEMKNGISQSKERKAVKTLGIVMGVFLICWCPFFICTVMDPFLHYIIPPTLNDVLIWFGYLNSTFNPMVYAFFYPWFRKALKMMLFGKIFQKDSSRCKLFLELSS
Put plainly: Fluorescence-based cell-based high throughput dose response assay to identify agonists of the human trace amine associated receptor 1 (TAAR1). It counts as functional.

Test [4] addresses T2, Trace amine-associated receptor 1. Nature of the test: Counterscreen for agonists of the human trace amine associated receptor 1 (hTAAR1): Fluorescence-based cell-based high throughput dose response assay to identify hTAAR1 agonist that also desensitize TAAR1 receptor response. The test is classed as functional. On the technique in general: The purpose of a counterscreen is to sort out artefacts and off-target activity.

Test [5] in a line: cells. The test is classed as functional, cell-based. The source holds these as a separate data set.
In test [6] the target is T3, Replicative DNA helicase DnaB (Mycobacterium tuberculosis, UniProt P9WMR3).
T3 sequence (P9WMR3 whole entry): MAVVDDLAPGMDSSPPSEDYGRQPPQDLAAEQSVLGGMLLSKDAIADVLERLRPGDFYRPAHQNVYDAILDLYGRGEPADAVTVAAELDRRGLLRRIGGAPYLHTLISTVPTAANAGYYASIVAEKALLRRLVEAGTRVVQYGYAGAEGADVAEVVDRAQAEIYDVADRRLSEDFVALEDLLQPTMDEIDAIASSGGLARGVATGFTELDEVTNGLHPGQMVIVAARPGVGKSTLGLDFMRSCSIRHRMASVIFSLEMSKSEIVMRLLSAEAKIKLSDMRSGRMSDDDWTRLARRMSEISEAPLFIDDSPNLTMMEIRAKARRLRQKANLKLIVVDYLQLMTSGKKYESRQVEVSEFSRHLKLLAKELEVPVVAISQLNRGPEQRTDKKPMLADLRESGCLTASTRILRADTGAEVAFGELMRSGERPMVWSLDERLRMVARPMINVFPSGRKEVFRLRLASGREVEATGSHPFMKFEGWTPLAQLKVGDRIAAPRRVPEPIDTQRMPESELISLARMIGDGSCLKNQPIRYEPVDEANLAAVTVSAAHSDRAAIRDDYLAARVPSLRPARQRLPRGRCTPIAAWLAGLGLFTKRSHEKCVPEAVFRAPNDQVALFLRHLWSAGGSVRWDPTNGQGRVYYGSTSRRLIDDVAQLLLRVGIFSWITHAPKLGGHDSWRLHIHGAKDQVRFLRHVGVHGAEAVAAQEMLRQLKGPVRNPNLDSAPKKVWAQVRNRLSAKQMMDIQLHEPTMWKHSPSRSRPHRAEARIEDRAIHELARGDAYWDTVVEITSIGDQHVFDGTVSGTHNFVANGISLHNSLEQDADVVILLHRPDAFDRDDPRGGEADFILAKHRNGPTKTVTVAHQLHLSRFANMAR
Put plainly: DnaB intein splicing inhibitors, dose response, biochemical, cell-free fluorescence (AID 449749). The test is classed as functional.

The target of test [7] is T4, Apoptotic protease-activating factor 1 (Homo sapiens, UniProt O14727).
T4 sequence (O14727 whole entry): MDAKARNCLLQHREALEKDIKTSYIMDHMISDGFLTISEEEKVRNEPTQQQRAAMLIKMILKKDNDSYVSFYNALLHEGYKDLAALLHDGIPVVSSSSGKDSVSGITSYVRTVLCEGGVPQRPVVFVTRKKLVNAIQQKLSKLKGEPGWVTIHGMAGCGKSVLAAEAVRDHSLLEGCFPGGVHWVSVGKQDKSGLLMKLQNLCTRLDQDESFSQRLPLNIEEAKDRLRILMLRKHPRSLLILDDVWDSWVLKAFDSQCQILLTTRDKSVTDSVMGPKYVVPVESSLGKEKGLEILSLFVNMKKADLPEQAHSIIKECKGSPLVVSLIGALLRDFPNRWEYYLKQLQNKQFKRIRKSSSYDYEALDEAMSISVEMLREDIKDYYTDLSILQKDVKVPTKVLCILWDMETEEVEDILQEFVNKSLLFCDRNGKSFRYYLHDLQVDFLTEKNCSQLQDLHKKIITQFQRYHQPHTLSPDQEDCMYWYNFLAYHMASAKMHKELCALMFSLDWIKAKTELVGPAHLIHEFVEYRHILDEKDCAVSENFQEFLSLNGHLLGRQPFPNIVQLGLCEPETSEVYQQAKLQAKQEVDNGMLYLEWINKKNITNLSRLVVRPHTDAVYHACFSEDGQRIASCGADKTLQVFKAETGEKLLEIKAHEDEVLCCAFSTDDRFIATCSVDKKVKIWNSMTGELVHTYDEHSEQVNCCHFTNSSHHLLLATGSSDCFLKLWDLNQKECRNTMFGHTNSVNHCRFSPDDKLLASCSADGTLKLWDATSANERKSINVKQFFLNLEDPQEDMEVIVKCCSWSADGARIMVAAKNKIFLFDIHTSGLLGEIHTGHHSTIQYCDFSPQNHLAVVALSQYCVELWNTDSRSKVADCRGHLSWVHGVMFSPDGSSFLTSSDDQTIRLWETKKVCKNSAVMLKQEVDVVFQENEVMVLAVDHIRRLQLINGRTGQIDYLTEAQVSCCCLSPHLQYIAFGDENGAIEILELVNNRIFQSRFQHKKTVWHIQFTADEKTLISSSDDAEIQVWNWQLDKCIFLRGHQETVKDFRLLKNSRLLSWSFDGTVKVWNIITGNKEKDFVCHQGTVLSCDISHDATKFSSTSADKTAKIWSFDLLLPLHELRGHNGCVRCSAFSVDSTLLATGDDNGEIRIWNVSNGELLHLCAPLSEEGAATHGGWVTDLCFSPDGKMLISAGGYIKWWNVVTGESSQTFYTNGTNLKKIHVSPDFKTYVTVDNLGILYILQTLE
The test is classed as functional.

A further test addresses T5, Protein RecA (Mycobacterium tuberculosis, UniProt P9WHJ3).
T5 sequence (P9WHJ3 whole entry): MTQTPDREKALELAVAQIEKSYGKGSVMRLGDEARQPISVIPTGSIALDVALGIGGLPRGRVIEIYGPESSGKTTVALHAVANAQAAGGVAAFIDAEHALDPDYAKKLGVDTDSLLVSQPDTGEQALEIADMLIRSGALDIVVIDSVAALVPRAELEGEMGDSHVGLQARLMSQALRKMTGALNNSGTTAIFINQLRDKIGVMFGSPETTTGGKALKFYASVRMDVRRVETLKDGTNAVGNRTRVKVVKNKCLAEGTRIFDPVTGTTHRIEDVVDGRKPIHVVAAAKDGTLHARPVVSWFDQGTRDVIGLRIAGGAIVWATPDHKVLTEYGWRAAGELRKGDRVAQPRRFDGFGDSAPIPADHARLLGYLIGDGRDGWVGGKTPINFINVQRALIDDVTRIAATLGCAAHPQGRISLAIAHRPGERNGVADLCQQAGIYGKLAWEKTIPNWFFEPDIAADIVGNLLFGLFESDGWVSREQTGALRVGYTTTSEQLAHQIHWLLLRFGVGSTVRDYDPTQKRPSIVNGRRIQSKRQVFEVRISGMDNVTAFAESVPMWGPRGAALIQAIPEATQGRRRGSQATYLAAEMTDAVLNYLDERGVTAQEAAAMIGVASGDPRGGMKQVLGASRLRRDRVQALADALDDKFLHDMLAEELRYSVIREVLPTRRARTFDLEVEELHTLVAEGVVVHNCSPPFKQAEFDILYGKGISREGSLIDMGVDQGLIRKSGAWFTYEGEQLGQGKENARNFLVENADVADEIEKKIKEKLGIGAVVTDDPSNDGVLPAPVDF
Put plainly: Fluorescence Cell-Free Homogeneous Dose Retest to Identify Inhibitors of RecA-Intein Splicing Activity. [Related pubchem assays (depositor defined):AID2097, AID2223, AID489010, AID492950]. The test is classed as functional.

Test [8] has as its target T6, Mitochondrial peptide methionine sulfoxide reductase (Bos taurus, UniProt P54149).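 Also: absorbance read-out, biochemical high-throughput dose-response screen for MsrA inhibitors, confirmatory; recombinant bovine MsrA coupled to E. coli TrxB with NADPH and selenocystamine; potency is for inhibitors of MsrA activity on DMSO substrate.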
T6 sequence (P54149 whole entry): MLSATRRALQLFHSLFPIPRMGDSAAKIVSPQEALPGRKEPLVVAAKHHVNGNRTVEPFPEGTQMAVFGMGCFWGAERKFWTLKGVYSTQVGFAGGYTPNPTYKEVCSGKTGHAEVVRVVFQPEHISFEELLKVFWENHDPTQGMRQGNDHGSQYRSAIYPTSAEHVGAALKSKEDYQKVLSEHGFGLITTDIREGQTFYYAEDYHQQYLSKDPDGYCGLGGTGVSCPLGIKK
The test is classed as functional.

The next test deals with Beta-galactosidase (Escherichia coli, UniProt Q8VNN2). Nature of the test: Dose response counterscreen for EBI2 assay utilizing the enzyme, b-galactosidase. It counts as functional.
In test [9] the target is T7, Heat shock factor protein 1 (Mus musculus, UniProt P38532).
T7 sequence (P38532 whole entry): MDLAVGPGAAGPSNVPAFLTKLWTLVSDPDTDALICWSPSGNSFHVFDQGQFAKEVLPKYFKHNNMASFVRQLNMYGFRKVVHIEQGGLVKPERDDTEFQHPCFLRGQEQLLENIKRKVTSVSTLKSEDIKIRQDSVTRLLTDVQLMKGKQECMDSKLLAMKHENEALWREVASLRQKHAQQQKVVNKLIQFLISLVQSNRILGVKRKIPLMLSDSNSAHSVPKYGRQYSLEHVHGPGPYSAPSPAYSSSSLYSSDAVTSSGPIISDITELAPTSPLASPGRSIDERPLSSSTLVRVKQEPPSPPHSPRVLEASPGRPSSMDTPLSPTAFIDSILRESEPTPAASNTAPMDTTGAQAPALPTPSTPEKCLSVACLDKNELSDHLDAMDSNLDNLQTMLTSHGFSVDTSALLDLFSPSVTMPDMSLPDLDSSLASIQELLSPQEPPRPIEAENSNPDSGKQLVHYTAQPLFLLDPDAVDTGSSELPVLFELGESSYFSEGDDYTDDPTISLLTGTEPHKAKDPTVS
Put plainly: HSF1 potentiators in luciferase reporter cells, confirmation, cell-based, NIH3T3, luminescence, dose retest (AID 435004).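 Also: stress induced by proteasome inhibitor MG132 added 30 min after compound; luciferase reporter driven by HSF1 response element in NIH3T3 cells; actives raise luminescence as potentiators of the MG132 stress response.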 It counts as functional. Background: Reporter assays use an easily measured gene product as a stand-in for the process of interest.

The target of a further test is Protein Wnt-3a (Mus musculus, UniProt P27467). Nature of the test: SAR analysis of small molecule antagonists of Gli-SUFU in a Wnt3a luminescent reporter assay. It counts as functional.
Chain of Protein Wnt-3a (P27467 whole entry): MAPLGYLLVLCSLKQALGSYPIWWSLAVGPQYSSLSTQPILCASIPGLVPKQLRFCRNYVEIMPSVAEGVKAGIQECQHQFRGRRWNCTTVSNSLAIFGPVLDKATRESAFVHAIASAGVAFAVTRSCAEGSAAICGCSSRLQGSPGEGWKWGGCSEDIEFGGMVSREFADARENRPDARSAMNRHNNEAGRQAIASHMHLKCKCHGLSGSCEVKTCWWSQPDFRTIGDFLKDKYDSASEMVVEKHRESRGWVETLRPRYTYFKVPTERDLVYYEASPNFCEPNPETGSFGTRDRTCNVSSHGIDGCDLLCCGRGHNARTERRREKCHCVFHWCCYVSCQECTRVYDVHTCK

Chain of Beta-galactosidase (Q8VNN2 whole entry): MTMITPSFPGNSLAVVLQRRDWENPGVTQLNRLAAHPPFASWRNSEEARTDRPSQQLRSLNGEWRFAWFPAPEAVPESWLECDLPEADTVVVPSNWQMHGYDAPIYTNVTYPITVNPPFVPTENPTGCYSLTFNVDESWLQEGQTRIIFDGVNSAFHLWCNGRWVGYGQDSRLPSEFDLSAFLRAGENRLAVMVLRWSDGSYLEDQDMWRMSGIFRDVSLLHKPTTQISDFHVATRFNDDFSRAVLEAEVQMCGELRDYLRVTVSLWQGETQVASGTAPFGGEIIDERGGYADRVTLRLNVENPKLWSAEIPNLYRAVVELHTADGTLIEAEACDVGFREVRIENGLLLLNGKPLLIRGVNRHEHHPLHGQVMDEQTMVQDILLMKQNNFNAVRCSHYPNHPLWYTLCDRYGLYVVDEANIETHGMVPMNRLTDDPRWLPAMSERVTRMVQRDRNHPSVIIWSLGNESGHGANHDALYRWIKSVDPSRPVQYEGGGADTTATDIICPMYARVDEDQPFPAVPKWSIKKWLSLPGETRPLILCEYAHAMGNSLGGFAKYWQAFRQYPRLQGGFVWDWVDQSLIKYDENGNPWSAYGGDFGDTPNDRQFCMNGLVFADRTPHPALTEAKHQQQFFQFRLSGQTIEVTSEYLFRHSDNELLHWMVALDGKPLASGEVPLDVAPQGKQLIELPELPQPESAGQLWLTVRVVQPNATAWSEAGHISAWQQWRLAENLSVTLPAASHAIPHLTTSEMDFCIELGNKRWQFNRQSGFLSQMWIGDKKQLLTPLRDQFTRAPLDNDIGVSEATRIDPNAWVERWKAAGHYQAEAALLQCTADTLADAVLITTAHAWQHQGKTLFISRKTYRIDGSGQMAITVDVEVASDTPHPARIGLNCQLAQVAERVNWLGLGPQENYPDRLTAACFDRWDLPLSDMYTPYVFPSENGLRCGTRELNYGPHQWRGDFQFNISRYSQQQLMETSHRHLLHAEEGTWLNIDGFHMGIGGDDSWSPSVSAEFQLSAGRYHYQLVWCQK

One may read the AC50 as the concentration giving half of the maximal activity seen. For `CCCCCCCCCCCCCCCC[n+]1ccccc1`, the AC50 in [1] is 4.21 µM (active).

What is called IC50 is the concentration that inhibits the measured activity by half. For orientation: EC50 means the concentration that produces a half-maximal response. Take `Cn1c(=O)c(=O)n(C)c2cc(S(=O)(=O)NCCc3ccccc3)ccc21`: the IC50 is > 29.9 µM (inactive) in “cells [2]” and 8.95 µM (active) in [4]. The EC50 in [3] is 2.21 µM (active); in the test “cells [5]”, > 29.9 µM (inactive).

For the molecule `CCn1c(C)nc2cc(C(=O)NNC(=O)Nc3ccc(Cl)cc3)ccc21`, the IC50 (in the test “cells [2]”; in test [4]) was > 29.9 µM (inactive) each time. Also, the EC50 (in test [3]; in the test “cells [5]”) was > 29.9 µM (inactive) throughout.

As for `O=C(O)c1cccc(NC2=C(n3nnc4ccccc43)C(=O)c3ccccc3C2=O)c1`, in test [6], the AC50 was 2.53 µM (active). The IC50 in [7] was 10.9 µM (active); in [8], 31.4 µM (inactive). The EC50 at Protein RecA is 2.26 µM (active).

For the molecule `Cc1ccc(Nc2ccc(C(=O)NC3CCCCC3)cn2)cc1`, the IC50 at Beta-galactosidase was > 80 µM (inactive).

For the molecule `O=C(CSc1ccc(Cl)cc1)N1CCN(c2c(Cl)cccc2[N+](=O)[O-])CC1`, the EC50 in test [9] is 14.8 µM (active). Besides, on Beta-galactosidase, the IC50 was > 80 µM (inactive).

In the case of `O=C(Nc1cc(N2CCCCC2)ncn1)c1ccsc1`, the IC50 on Protein Wnt-3a was > 21.8 µM (inactive).

On to `CCN(CC)c1cc(NC(=O)c2cccc(F)c2)ncn1`, for which the IC50 at Protein Wnt-3a was > 21.8 µM (inactive).

With `Cc1nc(NC(=O)c2ccccc2)cc(N2CCCC2)n1`, the IC50 on Protein Wnt-3a is > 21.8 µM (inactive).

Turning to `CCOC(=O)N1CCN(C(=O)c2cc3c(s2)-c2c(C)cccc2OC3)CC1`, the IC50 at Beta-galactosidase was > 80 µM (inactive).

As to `CC(=NCCc1ccccc1)C1=C(O)OCC1`, the IC50 in “cells [2]” was > 30 µM (inactive); in test [4], 2.35 µM (active). The figures for the EC50 (in test [3]; in the test “cells [5]”) were 0.65 µM (active) and > 30 µM (inactive), respectively.
